Test results from the NIST ThermoML archive (doi:10.1021/je500867u).
Numbers after ± are expanded uncertainties.

Conditions: Crystal; visual observation

## Nc1ccc(S(=O)(=O)O)cc1 [4-aminobenzenesulfonic acid]
  Normal melting temperature: 288.0 ± 0.5 °C
